# Data published in patent publication US9113629B2, “4-amino-6-(4-substituted-phenyl)-picolinates and 6-amino-2-(4-substituted-phenyl)-pyrimidine-4-carboxylates and their use as herbicides” (DOW AGROSCIENCES LLC, priority 2013, dated 2015).
# How the values were obtained:
# Assay type in all cases: in vivo
# [1] = tested on: AMARE: redroot pigwseed (Amaranthus retroflexus); assay: Pre-emergent Test I herbicidal activity; settings: pre-emergence, 336 h, read-out: Visual Growth Reduction (%) 14 Days After Application, AMARE
# Outline: (§1)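 Test compounds, serially diluted from the highest rate in an aqueous acetone/isopropanol/DMSO vehicle with crop oil concentrate, are applied to the soil of freshly seeded pots and watered in. Pots are kept in the greenhouse under supplemental lighting. Effect is scored at 14 days on a 0-100 scale.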
# [2] = tested on: SETFA: giant foxtail (Setaria faberi); assay: Pre-emergent Test I herbicidal activity; settings: pre-emergence, 336 h, read-out: Visual Growth Reduction (%) 14 Days After Application, SETFA
# Outline: as §1
# [3] = tested on: IPOHE: ivyleaf morningglory (Ipomoea hederecea); assay: Pre-emergent Test I herbicidal activity; settings: pre-emergence, 336 h, read-out: Visual Growth Reduction (%) 14 Days After Application, IPOHE
# Outline: as §1
# [4] = tested on: HELAN: sunflower (Helianthus annuus); assay: Pre-emergent Test I herbicidal activity; settings: pre-emergence, 336 h, read-out: Visual Growth Reduction (%) 14 Days After Application, HELAN
# Outline: as §1
# [5] = tested on: ECHCG: barnyardgrass (Echinochloa crus-galli); assay: Pre-emergent Test I herbicidal activity; settings: pre-emergence, 336 h, read-out: Visual Growth Reduction (%) 14 Days After Application, ECHCG
# Outline: as §1
# [6] = tested on: AVEFA: wild oats (Avena fatua); assay: Pre-emergent Test I herbicidal activity; settings: pre-emergence, 336 h, read-out: Visual Growth Reduction (%) 14 Days After Application, AVEFA
# Outline: as §1
# [7] = tested on: AMARE: redroot pigwseed (Amaranthus retroflexus); assay: Post-emergent Test I herbicidal activity; settings: post-emergence, read-out: Visual Growth Reduction (%), AMARE
# [8] = tested on: SETFA: giant foxtail (Setaria faberi); assay: Post-emergent Test I herbicidal activity; settings: post-emergence, 336 h, read-out: Visual Growth Reduction (%) 14 Days After Application, SETFA
# [9] = tested on: IPOHE: ivyleaf morningglory (Ipomoea hederecea); assay: Post-emergent Test I herbicidal activity; settings: post-emergence, 336 h, read-out: Visual Growth Reduction (%) 14 Days After Application, IPOHE
# [10] = tested on: HELAN: sunflower (Helianthus annuus); assay: Post-emergent Test I herbicidal activity; settings: post-emergence, 336 h, read-out: Visual Growth Reduction (%) 14 Days After Application, HELAN
# [11] = tested on: ECHCG: barnyardgrass (Echinochloa crus-galli); assay: Post-emergent Test I herbicidal activity; settings: post-emergence, 336 h, read-out: Visual Growth Reduction (%) 14 Days After Application, ECHCG
# [12] = tested on: AVEFA: wild oats (Avena fatua); assay: Post-emergent Test I herbicidal activity; settings: post-emergence, 336 h, read-out: Visual Growth Reduction (%) 14 Days After Application, AVEFA
structure (smiles),measurement,setting,value
"COC(=O)c1nc(-c2ccc(Br)c(F)c2F)cc(N)c1Cl [Compound 114, methyl 4-amino-6-(4-bromo-2,3-difluorophenyl)-3-chloropicolinate]",pest or weed control at 3920 g/ha,[1]; 3.92 kg ai/ha,95 to 100%
same,pest or weed control at 3920 g/ha,[2]; 3.92 kg ai/ha,85 to 94%
same,pest or weed control at 3920 g/ha,[3]; 3.92 kg ai/ha,95 to 100%
same,pest or weed control at 3920 g/ha,[4]; 3.92 kg ai/ha,95 to 100%
same,pest or weed control at 3920 g/ha,[5]; 3.92 kg ai/ha,75 to 84%
same,pest or weed control at 3920 g/ha,[6]; 3.92 kg ai/ha,95 to 100%
same,pest or weed control at 3920 g/ha,[7]; 3.92 kg ai/ha,95 to 100%
same,pest or weed control at 3920 g/ha,[8]; 3.92 kg ai/ha,75 to 84%
same,pest or weed control at 3920 g/ha,[9]; 3.92 kg ai/ha,85 to 94%
same,pest or weed control at 3920 g/ha,[10]; 3.92 kg ai/ha,95 to 100%
same,pest or weed control at 3920 g/ha,[11]; 3.92 kg ai/ha,95 to 100%
same,pest or weed control at 3920 g/ha,[12]; 3.92 kg ai/ha,0 to 29%
COC(=O)c1nc(-c2ccc(C(F)F)cc2)c(F)c(N)c1Cl [Compound 209],pest or weed control at 4000 g/ha,[1]; 4 kg ai/ha,95 to 100%
same,pest or weed control at 4000 g/ha,[2]; 4 kg ai/ha,95 to 100%
same,pest or weed control at 4000 g/ha,[3]; 4 kg ai/ha,95 to 100%
same,pest or weed control at 4000 g/ha,[4]; 4 kg ai/ha,95 to 100%
same,pest or weed control at 4000 g/ha,[5]; 4 kg ai/ha,95 to 100%
same,pest or weed control at 4000 g/ha,[6]; 4 kg ai/ha,95 to 100%
same,pest or weed control at 4000 g/ha,[7]; 4 kg ai/ha,95 to 100%
same,pest or weed control at 4000 g/ha,[8]; 4 kg ai/ha,95 to 100%
same,pest or weed control at 4000 g/ha,[9]; 4 kg ai/ha,85 to 94%
same,pest or weed control at 4000 g/ha,[10]; 4 kg ai/ha,95 to 100%
same,pest or weed control at 4000 g/ha,[11]; 4 kg ai/ha,95 to 100%
same,pest or weed control at 4000 g/ha,[12]; 4 kg ai/ha,85 to 94%
"Nc1c(F)c(-c2ccc(I)cc2)nc(C(=O)O)c1Cl [Compound 45, 4-amino-3-chloro-5-fluoro-6-(4-iodophenyl)picolinic acid]",pest or weed control at 3960 g/ha,[1]; 3.96 kg ai/ha,95 to 100%
same,pest or weed control at 3960 g/ha,[2]; 3.96 kg ai/ha,95 to 100%
same,pest or weed control at 3960 g/ha,[3]; 3.96 kg ai/ha,95 to 100%
same,pest or weed control at 3960 g/ha,[4]; 3.96 kg ai/ha,95 to 100%
same,pest or weed control at 3960 g/ha,[5]; 3.96 kg ai/ha,95 to 100%
same,pest or weed control at 3960 g/ha,[6]; 3.96 kg ai/ha,95 to 100%
same,pest or weed control at 3960 g/ha,[7]; 3.96 kg ai/ha,95 to 100%
same,pest or weed control at 3960 g/ha,[8]; 3.96 kg ai/ha,95 to 100%
same,pest or weed control at 3960 g/ha,[9]; 3.96 kg ai/ha,85 to 94%
same,pest or weed control at 3960 g/ha,[10]; 3.96 kg ai/ha,95 to 100%
same,pest or weed control at 3960 g/ha,[11]; 3.96 kg ai/ha,95 to 100%
same,pest or weed control at 3960 g/ha,[12]; 3.96 kg ai/ha,95 to 100%
